{"source": "paper PMC4471902", "about": "“Block of NMDA receptor channels by endogenous neurosteroids: implications for the agonist induced conformational states of the channel vestibule” (Scientific Reports, 2015)", "key": {"[1]": {"tested_on": "GluR0 (potassium-selective prokaryotic glutamate receptor)", "test": "Whole-cell patch-clamp of GluR0 receptor responses in transfected HEK293 cells", "type": "cell-based, Synechocystis PCC 6803", "conditions": "1 mM glutamate, PA-S 300 µM", "text": "Human embryonic kidney (HEK293) cells were transfected with expression vectors containing: GluN1–1a (GenBank accession number U08261)[52]; GluN2B (GenBank accession number M91562); GluN1-4a(F484A), (generous gift from Dr. J. J. Woodward)[53] (Smothers & Woodward, 2009); GluN3A (generous gift from Dr. S. A. Lipton)[54] (GenBank accession number NM_138546); GluN1ΔN with deleted 354 amino acids in the NTD (32 to 386); GluN1ΔC with an introduced stop codon in 838 of the CTD GluN2BΔN) with deleted 354 amino acids in the NTD (32 to 386); GluN2BΔC with an introduced stop codon in 844 of the CTD[55]; GluR0 (GenBank accession number Synechocystis PCC 6803) (generous gift from Dr. M. L. Mayer)[18]; and green fluorescent protein (GFP) (pQBI 25, Takara, Tokyo, Japan) genes, as described previously. The Quick-Change site-directed mutagenesis kit (Agilent Technologies, Santa Clara, CA, USA) was used to generate specific point mutations in the M1/M3 region according to the manufacturer’s instructions using manually designed primers purchased from Sigma. Modified DNA plasmids were transformed into competent XL10-Gold E.coli cells, positive clones were selected, and isolated DNA was sequenced. […] All mutations were verified by DNA sequencing (Macrogen, Seoul, Korea or SeQme, Dobris, Czech Republic). […]"}, "GluN1ΔN/GluN2BΔN": {"molecular_target": "T1, GluN1ΔN/GluN2BΔN (Rattus norvegicus, UniProt P35439+Q00960, DEL32-386)", "T1 construct": "expressed in transfected cells; host or cells: HEK293", "T1 sequence (P35439 with tags, fused parts or gaps DEL32-386)": "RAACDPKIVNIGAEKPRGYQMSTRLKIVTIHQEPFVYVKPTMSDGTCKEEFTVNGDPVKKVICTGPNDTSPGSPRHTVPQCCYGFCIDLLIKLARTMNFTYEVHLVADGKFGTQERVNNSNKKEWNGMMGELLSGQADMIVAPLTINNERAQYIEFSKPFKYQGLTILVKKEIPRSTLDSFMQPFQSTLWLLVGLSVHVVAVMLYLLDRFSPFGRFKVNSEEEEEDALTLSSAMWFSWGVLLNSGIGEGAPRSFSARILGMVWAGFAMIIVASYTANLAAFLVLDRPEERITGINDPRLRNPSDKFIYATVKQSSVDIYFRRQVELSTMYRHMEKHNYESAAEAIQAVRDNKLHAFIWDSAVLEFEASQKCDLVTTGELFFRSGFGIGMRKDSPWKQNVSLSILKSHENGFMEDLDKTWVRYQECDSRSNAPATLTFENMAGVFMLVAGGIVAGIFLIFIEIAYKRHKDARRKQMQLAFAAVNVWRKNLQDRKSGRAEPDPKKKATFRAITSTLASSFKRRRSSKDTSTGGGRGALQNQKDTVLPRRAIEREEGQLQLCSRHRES", "T1 sequence (Q00960 with tags, fused parts or gaps DEL32-386)": "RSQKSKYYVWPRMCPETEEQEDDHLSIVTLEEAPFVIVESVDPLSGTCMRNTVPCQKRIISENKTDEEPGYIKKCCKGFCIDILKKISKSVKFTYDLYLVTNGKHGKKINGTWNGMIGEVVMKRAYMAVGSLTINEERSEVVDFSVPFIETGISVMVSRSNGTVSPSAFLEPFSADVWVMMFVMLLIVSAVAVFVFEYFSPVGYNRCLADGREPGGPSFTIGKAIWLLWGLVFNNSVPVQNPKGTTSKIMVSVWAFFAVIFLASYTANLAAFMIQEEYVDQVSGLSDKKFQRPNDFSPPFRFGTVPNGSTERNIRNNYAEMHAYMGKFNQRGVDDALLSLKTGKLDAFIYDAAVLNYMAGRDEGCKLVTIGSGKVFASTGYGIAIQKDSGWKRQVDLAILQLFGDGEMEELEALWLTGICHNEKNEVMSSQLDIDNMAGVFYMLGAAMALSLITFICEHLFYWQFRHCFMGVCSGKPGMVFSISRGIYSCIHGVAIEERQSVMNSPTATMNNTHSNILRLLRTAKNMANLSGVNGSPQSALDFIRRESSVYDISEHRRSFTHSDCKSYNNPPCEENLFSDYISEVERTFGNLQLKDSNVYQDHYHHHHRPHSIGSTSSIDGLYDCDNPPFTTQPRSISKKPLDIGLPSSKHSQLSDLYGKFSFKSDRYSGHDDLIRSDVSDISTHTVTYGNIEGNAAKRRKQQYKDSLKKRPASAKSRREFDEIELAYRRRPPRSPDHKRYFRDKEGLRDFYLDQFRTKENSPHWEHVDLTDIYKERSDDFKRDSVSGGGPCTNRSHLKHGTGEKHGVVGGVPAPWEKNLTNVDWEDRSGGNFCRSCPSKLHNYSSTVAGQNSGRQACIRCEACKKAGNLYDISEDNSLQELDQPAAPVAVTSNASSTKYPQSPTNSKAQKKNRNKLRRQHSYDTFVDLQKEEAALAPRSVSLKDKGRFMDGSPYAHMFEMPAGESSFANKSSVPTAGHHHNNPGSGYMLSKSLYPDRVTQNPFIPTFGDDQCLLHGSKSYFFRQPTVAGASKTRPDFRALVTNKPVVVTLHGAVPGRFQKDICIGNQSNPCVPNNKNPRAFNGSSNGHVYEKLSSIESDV", "test": "Whole-cell patch-clamp of N-terminal truncated NMDARs in HEK293 cells", "type": "cell-based", "conditions": "1 mM glutamate, PA-S 50 µM", "text": "Human embryonic kidney (HEK293) cells were transfected with expression vectors containing: GluN1–1a (GenBank accession number U08261)[52]; GluN2B (GenBank accession number M91562); GluN1-4a(F484A), (generous gift from Dr. J. J. Woodward)[53] (Smothers & Woodward, 2009); GluN3A (generous gift from Dr. S. A. Lipton)[54] (GenBank accession number NM_138546); GluN1ΔN with deleted 354 amino acids in the NTD (32 to 386); GluN1ΔC with an introduced stop codon in 838 of the CTD GluN2BΔN) with deleted 354 amino acids in the NTD (32 to 386); GluN2BΔC with an introduced stop codon in 844 of the CTD[55]; GluR0 (GenBank accession number Synechocystis PCC 6803) (generous gift from Dr. M. L. Mayer)[18]; and green fluorescent protein (GFP) (pQBI 25, Takara, Tokyo, Japan) genes, as described previously. The Quick-Change site-directed mutagenesis kit (Agilent Technologies, Santa Clara, CA, USA) was used to generate specific point mutations in the M1/M3 region according to the manufacturer’s instructions using manually designed primers purchased from Sigma. Modified DNA plasmids were transformed into competent XL10-Gold E.coli cells, positive clones were selected, and isolated DNA was sequenced. […]\n(§1) The IC50 was determined from a single dose of a steroid using the formula [drawing 1] where I is the relative degree of inhibition and [steroid] is the steroid concentration used. […]"}, "[2]": {"tested_on": "mutated GluN1/GluN2B receptors", "test": "PA-S sensitivity of NMDARs mutated in the M1 and M3 regions of GluN1 and GluN2B (HEK293 cells)", "type": "cell-based", "text": "Human embryonic kidney (HEK293) cells were transfected with expression vectors containing: GluN1–1a (GenBank accession number U08261)[52]; GluN2B (GenBank accession number M91562); GluN1-4a(F484A), (generous gift from Dr. J. J. Woodward)[53] (Smothers & Woodward, 2009); GluN3A (generous gift from Dr. S. A. Lipton)[54] (GenBank accession number NM_138546); GluN1ΔN with deleted 354 amino acids in the NTD (32 to 386); GluN1ΔC with an introduced stop codon in 838 of the CTD GluN2BΔN) with deleted 354 amino acids in the NTD (32 to 386); GluN2BΔC with an introduced stop codon in 844 of the CTD[55]; GluR0 (GenBank accession number Synechocystis PCC 6803) (generous gift from Dr. M. L. Mayer)[18]; and green fluorescent protein (GFP) (pQBI 25, Takara, Tokyo, Japan) genes, as described previously. The Quick-Change site-directed mutagenesis kit (Agilent Technologies, Santa Clara, CA, USA) was used to generate specific point mutations in the M1/M3 region according to the manufacturer’s instructions using manually designed primers purchased from Sigma. Modified DNA plasmids were transformed into competent XL10-Gold E.coli cells, positive clones were selected, and isolated DNA was sequenced. […] All mutations were verified by DNA sequencing (Macrogen, Seoul, Korea or SeQme, Dobris, Czech Republic). The amino acids are numbered according to the full-length protein, including the signal peptide, with the initiating methionine as 1.\nExperiments were performed 24–48 hrs after transfection on cells transfected with GluN1/GluN2B/GFP plasmids. Whole-cell voltage-clamp recordings from HEK293 cells were made with a patch-clamp amplifier (Axopatch 200B; Axon Instruments, Inc., Foster City, CA) after a capacitance and series resistance (<10 MΩ) compensation of 80–90%.\nPatch pipettes (3–5 MΩ) were filled with a solution containing (in mM): 120 gluconic acid, 15 CsCl, 10 BAPTA, 10 HEPES, 3 MgCl2, 1 CaCl2, and 2 ATP-Mg salt (pH-adjusted to 7.2 with CsOH). When GluR0 receptor responses were studied, intracellular solution contained (in mM): 120 gluconic acid, 15 KCl, 10 BAPTA, 10 HEPES, 3 MgCl2, 1 CaCl2, and 2 ATP-Mg salt (pH-adjusted to 7.2 with KOH). Extracellular solution (ECS) contained the following (in mM): 160 NaCl, 2.5 KCl, 10 HEPES, 10 glucose, 0.2 EDTA, and 0.7 CaCl2 (pH-adjusted to 7.3 with NaOH). Glycine (10 μM), an NMDAR co-agonist, was present in the control and test solutions. All (PA-S and PA-A) solutions were made from freshly prepared 20 mM PA-S and 5 mM PA-A stock in dimethyl sulfoxide (DMSO). The final dilution to ECS was made at 50 °C and followed by 1 min sonication (SONOREX DIGITEC DT 100/H, BADELIN electronic, Berlin, Germany). The same concentration of DMSO was added to all extracellular solutions. Drug applications were made with a microprocessor-controlled multibarrel fast-perfusion system. Changes in the glutamate-induced current in HEK293 cells transfected by GluN1/GluN2B subunits were used to estimate the rate of solution exchange around the cell. Standard ECS was switched to the ECS diluted by water (50%) during glutamate application. The osmolarity was adjusted by sucrose to match the standard ECS. Glutamate (1 mM), glycine (10 μM) and pH was maintained constant in both solutions. […]\nas §1"}, "[3]": {"tested_on": "non-transfected HEK293 cells", "test": "Membrane capacitance measurement of steroid association with and exit from the membrane", "type": "cell-based, Human", "text": "Membrane capacitance was estimated by examining the integrated capacitive current (sampled at 30 kHz at 10 kHz filter cutoff frequency) evoked by depolarizing or hyperpolarizing voltage pulses from −60 mV to +30 mV for 3 ms delivered at 200 Hz."}}, "note": "Several values for one entry are separate records, joined by “and”; a condition that tells them apart may be missing. Equal entries are not always repeated. Structures can show the parent of a compound that is named as a salt."}
{"smiles": "CC(=O)[C@H]1CC[C@H]2[C@@H]3CC[C@@H]4C[C@H](OS(=O)(=O)O)CC[C@]4(C)[C@H]3CC[C@]12C", "note": "[PA-S, 20-oxo-5β-pregnan-3α-yl sulfate]", "values": [{"measurement": "effect on glutamate-induced responses", "setting": "[1]", "value": "inhibited"}, {"measurement": "IC50", "setting": "GluN1ΔN/GluN2BΔN", "value": "41 ± 2", "unit": "µM"}, {"measurement": "difference of PA-S IC50 between GluN1(T648A)/GluN2B and GluN1/GluN2B(T647A) receptors", "setting": "[2]", "value": 5.4, "unit": "fold"}, {"measurement": "change of PA-S IC50 relative to the WT receptor value", "setting": "[2]; GluN1: F654A, GluN2B: P547A/S548A, F550A, L551A/E552A, F637A/F638A, Y646A, M654A, E657A/E658A", "value": "less than half"}, {"measurement": "change of PA-S IC50 relative to the WT receptor value", "setting": "[2]; GluN1: Y647A, T648A, A649T, N650A/L651A, V656A, GluN2B: S645A, T647A, A652T", "value": "over two-fold"}, {"measurement": "IC50", "setting": "[2]; residues whose mutation decreased the IC50 by half (GluN1: F654A; GluN2B: P547A/S548A, F550A, L551A/E552A, F637A/F638A, Y646A, M654A, E657A/E658A)", "value": "< 21", "unit": "µM"}, {"measurement": "IC50", "setting": "[2]; residues whose mutation increased the IC50 more than two-fold (GluN1: Y647A, T648A, A649T, N650A/L651A, V656A; GluN2B: S645A, T647A, A652T)", "value": "> 84", "unit": "µM"}, {"measurement": "fast dissociation time constant from the membrane", "setting": "[3]", "value": "≤ 1", "unit": "ms"}, {"measurement": "koff (rate of steroid dissociation from the membrane)", "setting": "[3]", "value": "≥ 1000", "unit": "s⁻¹"}, {"measurement": "capacitance increase during the steroid application", "setting": "[3]; PA-S 150 μM for 1 s, attached cells", "value": "~ 3%"}, {"measurement": "capacitance return after steroid washout As", "setting": "[3]; PA-S 150 μM, attached cells", "value": "41 ± 2", "unit": "%"}, {"measurement": "capacitance return after steroid washout τf", "setting": "[3]; PA-S 150 μM, attached cells", "value": "< 5", "unit": "ms"}, {"measurement": "capacitance return after steroid washout τs", "setting": "[3]; PA-S 150 μM, attached cells", "value": "222 ± 8 ms and 244 ms"}, {"measurement": "capacitance change after PA-S washout τ", "setting": "[3]; lifted cells, only fast component resolved", "value": "< 5", "unit": "ms"}]}
